Measurements: patent US10870660B2, “Nitrogen-containing condensed ring compounds having dopamine D3 antagonistic effect” (Shionogi & Co., Ltd., priority 2016, dated 2020)

Key:
[1] = target: human recombinant dopamine D2 receptor (Homo sapiens (Human), UniProt P14416); test: Test of binding inhibition for the human dopamine D2 receptor ([3H]-Metylspiperone SPA binding); conditions: [3H]-Metylspiperone 1.2 nM, Jump-In HEK cell membranes, read-out: hD2_Ki
Protocol: Cell membranes: Jump-In HEK cell membranes expressing human recombinant dopamine D2 receptor (2 μg/well)
Buffer solution: 50 mM Tris-HCl (35409-45, Nacalai Tesque) (pH 7.4) containing 120 mM NaCl (31320-05, Nacalai Tesque), 1 mM MgCl2.6H2O (20909-55, Nacalai Tesque), 5 mM KCl (28514-75, Nacalai Tesque) and 2 mM CaCl2 (067-31, Nacalai Chemical, Ltd)
Radioligand: (final concentration) 1.2 nM [^3H]-Metylspiperone ([^3H—N-methyl-]-Metylspiperone, NET-856, 83.8 Ci/mmol, PerkinElmer)
(§1) Non-specific ligand: (final concentration) 10 μM Butaclamol [(+)-Butaclamol Hydrochioride, D033, Sigma]
(§2) SPA beads: SPA beads [WGA PVT SPA Scintillatiion Beads, RPNQ0001 (500 mg), RPNQ0060 (2 g), PerkinElmer] (0.2 mg/well)
(§3) Incubation time and temperature: 120 min at 25° C.
(§4) Butaclamol or the compounds of the present invention were weighed and DMSO was added to make a 10 mM solution. This solution was diluted to each concentration.
[^3H]-Metylspiperone was weighed and the buffer solution was added to make a 3.6 nM solution.
(§5) SPA beads were weighed and stirred in water to make a 50 mg/mL solution. Using this solution, a mixed solution with the cell membranes was prepared.
225 nL of the solutions of the non-specific ligand or the compounds of the present invention at each concentration (in case of vehicle, final concentration 0.3% DMSO) were added in each well of a 384-well white/clear bottom microplate (3706, Corning). Jump-In HEK Cell membranes (final reaction amount: 2 μg protein/well), SPA beads (final reaction amount: 0.2 mg/well) and the buffer were mixed and the mixed solution was left still for more than or equal to 1 h at 4° C. Then, 50 μL of the mixture was added to each well of the plate. In addition, 25 μL of 3.6 nM [^3H]-Metylspiperone (final concentration: 1.2 nM) was added to each well. The plate was sealed by putting TopSeal-A 96/384 well (6050185, PerkinElmer) on the top of the plate, mixed using stirring deaerator (Welltornado, FK-62, Sakaki) and incubated for 120 min at 25° C. After incubation, the radioactivity of [^3H]-Metylspiperone which was binded to D2 receptor was determined by liquid scintillation counter (1450 Microbeta, PerkinElmer) in each well. Non-specific binding was calculated based on the radioactivity of [^3H]-Metylspiperone in the presence of 10 μM non-labeled Butaclamol. The total binding was calculated using the radioactivity of [^3H]-Metylspiperone in the absence of the compounds of the present invention (Vehicle). The Ki values were calculated from dose-response curves.
(§6) Binding activities of the compounds of the present invention were calculated from the following Binding Inhibition Rate (%): Inhibition Rate (%)=[1−(c−a)(b−a)]×100(%) • a: Average cpm of non-specific binding • b: Average cpm of total binding • c: Cpm in the presence of each test compound

[2] = target: human recombinant dopamine D3 receptor (Homo sapiens (Human), UniProt P35462); test: Test of binding inhibition for the human dopamine D3 receptor ([3H]-Metylspiperone SPA binding); conditions: [3H]-Metylspiperone 2 nM, Jump-In HEK cell membranes, read-out: hD3_Ki
Protocol: Cell membranes: Jump-In HEK cell membranes expressing human recombinant dopamine D3 receptor (4 μg/well)
as §1, §2, §3, §4
[^3H]-Metylspiperone was weighed and the buffer solution was added to make a 6 nM solution.
as §5
Jump-In HEK Cell membranes (final reaction amount: 4 μg/well), SPA beads (final reaction amount: 0.2 mg/well) and Tris-HCl buffer were mixed and the mixed solution was left still for more than 60 min at 4° C. Then, 50 μL of the mixture was added to each well of the plate. In addition, 25 μL of 6 nM [^3H]-Metylspiperone (final concentration: 2 nM) was added to each well. […] Non-specific binding was calculated based on the radioactivity of [^3H]-Metylspiperone in the presence of 10 μM non-labeled Butaclamol. The total binding was calculated based on the radioactivity of [^3H]-Metylspiperone in the absence of the compounds of the present invention (Vehicle). The Ki values were calculated from dose-response curves.
as §6

human recombinant dopamine D2 receptor, sequence (P14416 whole entry): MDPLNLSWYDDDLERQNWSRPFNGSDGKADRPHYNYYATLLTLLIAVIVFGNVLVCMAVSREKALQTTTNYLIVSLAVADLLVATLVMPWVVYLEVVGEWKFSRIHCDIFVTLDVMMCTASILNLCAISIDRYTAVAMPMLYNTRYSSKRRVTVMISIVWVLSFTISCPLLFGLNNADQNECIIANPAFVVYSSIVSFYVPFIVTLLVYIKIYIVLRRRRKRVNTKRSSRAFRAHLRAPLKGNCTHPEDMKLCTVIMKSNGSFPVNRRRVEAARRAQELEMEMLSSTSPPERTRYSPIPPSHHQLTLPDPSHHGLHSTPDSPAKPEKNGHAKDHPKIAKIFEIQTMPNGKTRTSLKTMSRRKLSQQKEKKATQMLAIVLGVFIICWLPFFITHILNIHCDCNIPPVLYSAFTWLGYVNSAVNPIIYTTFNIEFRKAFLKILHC
human recombinant dopamine D3 receptor, sequence (P35462 whole entry): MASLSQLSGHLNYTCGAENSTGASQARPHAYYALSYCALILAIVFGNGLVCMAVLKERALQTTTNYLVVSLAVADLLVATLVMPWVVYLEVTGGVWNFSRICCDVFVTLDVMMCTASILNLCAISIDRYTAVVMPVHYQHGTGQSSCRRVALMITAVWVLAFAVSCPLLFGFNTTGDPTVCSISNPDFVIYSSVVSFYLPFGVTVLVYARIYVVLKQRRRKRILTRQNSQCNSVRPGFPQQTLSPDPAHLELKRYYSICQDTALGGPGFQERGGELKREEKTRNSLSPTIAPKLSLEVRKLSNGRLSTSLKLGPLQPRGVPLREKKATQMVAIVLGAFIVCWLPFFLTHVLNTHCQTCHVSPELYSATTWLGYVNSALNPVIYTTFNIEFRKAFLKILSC

| Ki [1] [nM] | Ki [2] [nM] | SMILES |
| --- | --- | --- |
| 380 | 0.4 | Cc1cc2c(C(=O)N[C@H]3CC[C@H](CCN4CCc5nc(OCC(F)(F)F)sc5CC4)OC3)cccn2n1 [III-169] |
| > 1900 | 7.4 | Cc1ncc(CC(=O)N[C@H]2CC[C@H](CCN3CCc4cn(CCC(F)(F)F)nc4CC3)CC2)s1 [II-088] |
| 650 | 0.48 | Cc1ncc(CC(=O)N[C@H]2CC[C@H](CCN3CCc4sc(OCC(C)(F)F)nc4C3)CC2)o1 [III-451] |
| 310 | 0.31 | Cc1ncc(OCC(=O)N[C@H]2CC[C@](F)(CCN3CCc4ccc(OCC(F)(F)F)nc4CC3)CC2)cn1 [III-088] |
| > 1900 | 1.6 | Cn1cc2c(C(=O)N[C@H]3CC[C@H](C(O)CN4CCc5ccc(OCC(F)(F)F)nc5CC4)CC3)cccc2n1 (stereo partly drawn) [III-248] |
| 1500 | 9.6 | O=C(N[C@H]1CO[C@H](CCN2CCc3sc(OCC(F)(F)F)nc3C2)OC1)OCc1ccccc1 [III-659] |
| > 1700 | 11 | O=C(N[C@H]1CC[C@H](CCN2CCc3sc(C4=CCOCC4)nc3C2)CC1)c1cccc2ncccc12 [Compound I-001] |
| 650 | 0.68 | Cn1cc(OCC(=O)N[C@H]2CC[C@H](CCN3CCc4nc(OCC(F)(F)F)sc4CC3)OC2)cn1 [III-175] |
| 190 | 0.15 | CCN1Cc2c(C(=O)N[C@H]3CC[C@H](CCN4CCc5sc(CCC(F)(F)F)nc5C4)CC3)cccc2C1=O [III-701] |
| > 1700 | 1.3 | Cc1ncc(CC(=O)N[C@H]2CC[C@H](C(F)CN3CCc4ccc(OCC(F)(F)F)nc4CC3)CC2)s1 (stereo partly drawn) [III-216] |
| 1300 | 0.12 | Cc1ncc(CC(=O)N[C@H]2CC[C@H](CCN3CCc4nc(OCC(C)(F)F)sc4CC3)CC2)o1 [II-029] |
| > 1700 | 0.73 | Cn1cc2c(C(=O)N[C@H]3CC[C@H](CCN4CCc5nc(OCC(C)(C)F)sc5CC4)CC3)cccc2n1 [III-076] |
| 1100 | 0.9 | Cc1nc(CC(=O)N[C@H]2CC[C@H](CCN3CCc4sc(N5CC(F)(F)C5)nc4C3)CC2)no1 [III-512] |
| 640 | 0.026 | CC(Oc1nc2c(s1)CCN(CC[C@H]1CC[C@H](NC(=O)c3cccc4c3CN(C)C4=O)CC1)CC2)C(F)(F)F (stereo partly drawn) [III-064] |
| 370 | 0.82 | Cc1ncc(CC(=O)N[C@H]2CC[C@H](CCN3CCc4sc(OCC(F)F)nc4C3)CC2)s1 [Compound I-107] |
| > 1700 | 0.53 | Cc1cc(OCC(=O)N[C@H]2CC[C@](F)(CCN3CCc4ccc(OCC(F)(F)F)nc4CC3)CC2)no1 [III-104] |
| 1100 | 1.1 | Cc1nnc(CC(=O)N[C@H]2CC[C@H](CCN3CCc4sc(CCC(F)(F)F)nc4C3)CC2)o1 [III-674] |
| 1400 | 0.79 | Cc1ncc(CC(=O)N[C@H]2CC[C@H](CCN3CCc4ccc(OCC(C)F)nc4CC3)CC2)s1 (stereo partly drawn) [III-203] |
| > 1800 | 0.15 | Cc1cnc(CC(=O)N[C@H]2CC[C@](F)(CCN3CCc4nc(OCC(F)(F)F)sc4CC3)CC2)o1 [III-266] |
| 330 | 0.16 | Cc1cc2c(C(=O)N[C@H]3CC[C@H](CCN4CCc5ccc(OCC(F)(F)F)nc5CC4)OC3)cccn2n1 [III-228] |
| > 1900 | 0.52 | Cc1ncc(CC(=O)N[C@H]2CC[C@H](CCN3CCc4nc(OCC(C)(C)F)sc4CC3)CC2)s1 [II-099] |
| 1400 | 1.5 | Cn1cc(CC(=O)N[C@H]2CC[C@H](CCN3CCc4sc(OCC(F)F)nc4C3)CC2)cn1 [Compound I-108] |
| 610 | 0.58 | Cc1nnc(CC(=O)N[C@H]2CC[C@](F)(CCN3CCc4nc(OCC(F)(F)F)sc4CC3)CC2)o1 [III-253] |

| Ki [1] [nM] | Ki [2] [nM] | SMILES |
| --- | --- | --- |
| 540 | 0.25 | O=C(CCC(F)(F)F)N[C@H]1CC[C@H](CCN2CCc3sc(N4CC(F)(F)C4)nc3C2)CC1 [III-580] |
| > 1700 | 4.7 | O=C(N[C@H]1CC[C@H](CCN2CCc3cn(Cc4ccccc4)nc3C2)CC1)c1cccc2ncccc12 [Compound I-113] |
| 290 | 0.051 | Cc1nc(/C=C/C(=O)N[C@H]2CC[C@H](CCN3CCc4sc(N5CC(F)(F)C5)nc4C3)CC2)cs1 [III-706] |
| 1200 | 1.9 | O=C(NCCCCN1CCc2sc(OCC(F)(F)F)nc2C1)c1ccc2ccccc2c1 [Compound I-140] |
| 140 | 0.13 | Cn1cc(/C=C/C(=O)N[C@H]2CC[C@H](CCN3CCc4nc(OCC(F)(F)F)sc4CC3)OC2)cn1 [III-168] |
| 370 | 0.12 | Cn1c(C(=O)N[C@H]2CC[C@H](CCN3CCc4nc(OCC(F)(F)F)sc4CC3)CC2)cccc1=O [III-128] |
| 340 | 0.39 | Cn1cc(OCC(=O)N[C@H]2CC[C@](F)(CCN3CCc4nc(OCC(F)(F)F)sc4CC3)CC2)cn1 [III-268] |
| 1100 | 1.2 | Cc1ncccc1C(=O)N[C@H]1CC[C@H](CCN2CCc3nc(OCC(F)F)sc3CC2)CC1 [III-271] |
| 740 | 0.096 | Cc1ncc(CC(=O)N[C@H]2CC[C@H](CCN3CCc4nc(OCC(F)(F)F)sc4CC3)CC2)o1 [II-085] |
| 460 | 0.72 | Cc1nc(CC(=O)N[C@H]2CC[C@H](CCN3CCc4nc(OCC(F)(F)F)sc4CC3)OC2)no1 [III-180] |
| 400 | 0.092 | Cn1cc2c(C(=O)NC3CC4(CC(CCN5CCc6sc(OCC(C)(F)F)nc6C5)C4)C3)cccc2n1 (single isomer, unassigned) [III-624] |
| > 1900 | 0.16 | Cn1ccc2c(C(=O)N[C@H]3CC[C@H](CCN4CCc5sc(OCC(C)(F)F)nc5C4)CC3)cccc2c1=O [III-630] |
| > 1800 | 0.48 | Cn1cc2c(C(=O)N[C@H]3CC[C@H](CCN4CCc5cnc(CCC(F)(F)F)nc5CC4)CC3)cccc2n1 [II-072] |
| 280 | 0.022 | CN1Cc2c(C(=O)N[C@H]3CC[C@H](CCN4CCc5nc(OCC(F)(F)F)sc5CC4)CC3)cccc2C1=O [II-047] |
| > 1700 | 12 | O=C(N[C@H]1CC[C@H](CCN2CCc3nc(-c4ccccc4)sc3C2)CC1)c1cccc2ncccc12 [Compound I-018] |
| > 1700 | 0.2 | Cn1cc2c(C(=O)N[C@H]3CC[C@H](CCN4CCc5nc(OCC(F)F)sc5CC4)CC3)cccc2n1 [II-026] |
| > 1700 | 0.25 | Cn1cc2c(C(=O)N[C@H]3CC[C@H](CCN4CCc5ccc(OC6CC(F)(F)C6)nc5CC4)CC3)cccc2n1 [III-155] |
| > 1700 | 0.69 | O=C(N[C@H]1CC[C@H](CCN2CCc3ccc(OCC(F)F)nc3C2)CC1)c1cccc2ncccc12 [Compound I-139] |
| > 1900 | 0.64 | Cc1ncc(CC(=O)N[C@H]2CC[C@H](CCN3CCc4nc(OCC5CC5)sc4CC3)CC2)s1 [II-090] |
| > 1700 | 1.3 | O=C(N[C@H]1CC[C@H](CCN2CCc3sc(Cc4ccccc4)nc3C2)CC1)c1cccc2ncccc12 [Compound I-014] |
| > 1800 | 2.7 | O=C(CCC(F)(F)F)N[C@H]1CC[C@H](CCN2CCc3nc(CCC(F)(F)F)sc3CC2)CC1 [II-018] |
| 480 | 0.57 | Cn1cc(CC(=O)N[C@H]2CC[C@](F)(CCN3CCc4nc(OCC(F)(F)F)sc4CC3)CC2)cn1 [III-261] |
